Where two headings read alike, the source gives them in different places. Positions of bridges follow the written chain, without caps; N, C: chain ends. Residues, ends and D or L forms follow the SMILES beside them.
Key:
Assay in all cases: cell-based
[1] = molecular target: hNav1.5 (Homo sapiens, UniProt Q14524); details: IWQ Use Nav1.5 (μM)
[2] = molecular target: hNav1.3 (Homo sapiens, UniProt Q9NY46); details: for Nav1.7/Nav1.3: Nav1.7 over Nav1.3
[3] = molecular target: hNav1.7 (Homo sapiens, UniProt Q15858); format: cell-based
[4] = ratio of IWQ Use values, Nav1.4 over Nav1.3
[5] = ratio of IWQ Use values, Nav1.4 over Nav1.7

Chain of hNav1.7 (Q15858 whole entry, looked up): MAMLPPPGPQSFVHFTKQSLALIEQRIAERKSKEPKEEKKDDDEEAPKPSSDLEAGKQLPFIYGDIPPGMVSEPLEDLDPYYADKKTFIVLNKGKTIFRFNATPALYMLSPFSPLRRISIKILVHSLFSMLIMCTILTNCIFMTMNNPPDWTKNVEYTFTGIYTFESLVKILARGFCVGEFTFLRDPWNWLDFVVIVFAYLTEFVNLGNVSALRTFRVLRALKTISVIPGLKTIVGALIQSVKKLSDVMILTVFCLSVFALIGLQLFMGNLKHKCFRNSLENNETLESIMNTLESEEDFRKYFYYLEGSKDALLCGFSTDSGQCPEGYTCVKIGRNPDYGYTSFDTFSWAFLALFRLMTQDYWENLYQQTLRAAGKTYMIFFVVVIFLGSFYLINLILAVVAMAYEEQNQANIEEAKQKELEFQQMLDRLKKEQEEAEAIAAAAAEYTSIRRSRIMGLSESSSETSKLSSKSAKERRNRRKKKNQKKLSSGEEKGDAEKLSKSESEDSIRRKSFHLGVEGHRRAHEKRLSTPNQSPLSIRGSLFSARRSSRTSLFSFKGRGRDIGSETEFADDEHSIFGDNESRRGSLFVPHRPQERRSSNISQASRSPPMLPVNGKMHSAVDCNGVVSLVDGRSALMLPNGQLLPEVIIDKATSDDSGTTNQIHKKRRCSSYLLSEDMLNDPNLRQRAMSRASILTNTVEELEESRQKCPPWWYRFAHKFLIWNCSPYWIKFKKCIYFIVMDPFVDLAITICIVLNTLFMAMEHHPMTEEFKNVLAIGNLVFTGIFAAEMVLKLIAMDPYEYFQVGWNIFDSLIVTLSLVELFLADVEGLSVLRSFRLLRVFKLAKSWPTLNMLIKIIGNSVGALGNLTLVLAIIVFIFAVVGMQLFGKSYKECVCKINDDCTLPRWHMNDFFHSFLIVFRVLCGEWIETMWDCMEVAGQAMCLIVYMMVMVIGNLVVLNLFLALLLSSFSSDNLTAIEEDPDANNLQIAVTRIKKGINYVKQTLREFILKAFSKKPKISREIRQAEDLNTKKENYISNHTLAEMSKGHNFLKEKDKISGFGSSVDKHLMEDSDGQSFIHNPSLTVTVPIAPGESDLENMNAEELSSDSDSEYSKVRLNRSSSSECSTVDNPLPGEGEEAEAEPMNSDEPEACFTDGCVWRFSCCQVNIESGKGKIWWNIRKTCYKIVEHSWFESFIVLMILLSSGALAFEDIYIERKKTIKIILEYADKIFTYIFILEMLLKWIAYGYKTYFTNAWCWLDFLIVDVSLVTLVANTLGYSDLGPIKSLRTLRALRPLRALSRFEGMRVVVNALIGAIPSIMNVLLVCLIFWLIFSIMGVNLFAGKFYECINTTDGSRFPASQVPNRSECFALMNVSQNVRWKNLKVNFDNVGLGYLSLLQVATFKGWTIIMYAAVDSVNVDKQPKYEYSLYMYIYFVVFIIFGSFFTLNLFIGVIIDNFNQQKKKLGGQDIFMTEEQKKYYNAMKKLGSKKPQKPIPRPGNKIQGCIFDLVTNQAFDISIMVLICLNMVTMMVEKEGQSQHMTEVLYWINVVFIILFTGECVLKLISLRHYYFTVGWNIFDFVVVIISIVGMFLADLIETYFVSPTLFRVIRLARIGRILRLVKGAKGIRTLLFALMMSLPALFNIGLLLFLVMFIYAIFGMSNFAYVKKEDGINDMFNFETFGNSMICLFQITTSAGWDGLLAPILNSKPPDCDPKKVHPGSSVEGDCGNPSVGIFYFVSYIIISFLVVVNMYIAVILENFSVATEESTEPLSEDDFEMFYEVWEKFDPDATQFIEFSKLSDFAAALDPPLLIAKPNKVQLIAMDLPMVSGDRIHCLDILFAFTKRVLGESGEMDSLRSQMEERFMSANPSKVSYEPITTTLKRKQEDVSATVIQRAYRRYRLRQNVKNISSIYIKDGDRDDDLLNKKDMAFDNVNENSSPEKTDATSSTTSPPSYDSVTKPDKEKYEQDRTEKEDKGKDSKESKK
Chain of hNav1.3 (Q9NY46 whole entry, looked up): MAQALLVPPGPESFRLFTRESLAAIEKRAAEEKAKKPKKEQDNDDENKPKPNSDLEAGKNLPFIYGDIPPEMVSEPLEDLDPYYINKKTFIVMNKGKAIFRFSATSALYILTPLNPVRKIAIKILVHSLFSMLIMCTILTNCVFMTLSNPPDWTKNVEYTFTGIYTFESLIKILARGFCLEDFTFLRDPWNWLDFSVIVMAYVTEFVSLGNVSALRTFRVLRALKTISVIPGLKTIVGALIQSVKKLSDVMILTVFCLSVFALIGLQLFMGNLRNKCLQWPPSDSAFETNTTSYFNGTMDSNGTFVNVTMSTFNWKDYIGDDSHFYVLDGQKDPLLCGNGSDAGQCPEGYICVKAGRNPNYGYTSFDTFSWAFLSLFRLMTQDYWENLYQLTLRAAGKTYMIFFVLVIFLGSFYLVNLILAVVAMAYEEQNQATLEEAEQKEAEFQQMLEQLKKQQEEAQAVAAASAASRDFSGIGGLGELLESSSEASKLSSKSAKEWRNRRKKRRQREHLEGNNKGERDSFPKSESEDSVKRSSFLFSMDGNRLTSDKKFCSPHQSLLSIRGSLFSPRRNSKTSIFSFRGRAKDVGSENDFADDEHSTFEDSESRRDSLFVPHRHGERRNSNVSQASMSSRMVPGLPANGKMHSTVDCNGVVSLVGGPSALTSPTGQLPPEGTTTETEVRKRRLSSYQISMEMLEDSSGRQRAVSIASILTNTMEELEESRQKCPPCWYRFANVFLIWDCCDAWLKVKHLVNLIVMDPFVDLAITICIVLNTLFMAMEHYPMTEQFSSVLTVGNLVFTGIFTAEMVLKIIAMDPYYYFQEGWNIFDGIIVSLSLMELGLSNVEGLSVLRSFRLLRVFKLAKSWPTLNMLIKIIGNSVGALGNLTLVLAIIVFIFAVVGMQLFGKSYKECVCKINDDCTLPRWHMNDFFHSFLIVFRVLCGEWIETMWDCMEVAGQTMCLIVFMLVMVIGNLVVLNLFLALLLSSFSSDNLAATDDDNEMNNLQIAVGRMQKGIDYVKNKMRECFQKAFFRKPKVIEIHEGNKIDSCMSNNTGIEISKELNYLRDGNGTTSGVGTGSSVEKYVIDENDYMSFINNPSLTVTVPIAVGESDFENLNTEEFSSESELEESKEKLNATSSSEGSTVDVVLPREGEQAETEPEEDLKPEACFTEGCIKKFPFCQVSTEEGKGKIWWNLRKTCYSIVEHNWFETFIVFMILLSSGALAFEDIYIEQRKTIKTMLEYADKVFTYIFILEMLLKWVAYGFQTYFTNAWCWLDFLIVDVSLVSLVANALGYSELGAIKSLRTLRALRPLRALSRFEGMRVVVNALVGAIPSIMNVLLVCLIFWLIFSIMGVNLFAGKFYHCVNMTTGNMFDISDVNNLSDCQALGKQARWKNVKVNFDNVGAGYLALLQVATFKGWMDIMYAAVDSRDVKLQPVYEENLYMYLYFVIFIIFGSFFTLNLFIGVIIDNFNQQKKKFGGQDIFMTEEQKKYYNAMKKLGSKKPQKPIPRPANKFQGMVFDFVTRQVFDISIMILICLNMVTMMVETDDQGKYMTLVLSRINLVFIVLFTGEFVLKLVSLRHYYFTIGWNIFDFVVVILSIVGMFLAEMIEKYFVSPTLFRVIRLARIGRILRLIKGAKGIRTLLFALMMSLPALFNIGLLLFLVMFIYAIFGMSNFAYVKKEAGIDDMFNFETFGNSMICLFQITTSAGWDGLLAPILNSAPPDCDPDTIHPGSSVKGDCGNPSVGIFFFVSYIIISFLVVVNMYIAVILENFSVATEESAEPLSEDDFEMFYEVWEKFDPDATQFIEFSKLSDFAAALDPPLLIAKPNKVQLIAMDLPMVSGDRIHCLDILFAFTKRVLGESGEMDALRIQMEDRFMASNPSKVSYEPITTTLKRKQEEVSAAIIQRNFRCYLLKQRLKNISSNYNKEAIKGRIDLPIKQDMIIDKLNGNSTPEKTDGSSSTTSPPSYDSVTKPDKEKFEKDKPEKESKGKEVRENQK

Row | Compound | Nav1.4/Nav1.3 [2, 4] | Nav1.7/Nav1.3 ([2]; ratio of IWQ Use values) | Nav1.4/Nav1.7 [3, 5] | further results
1 | CC[C@H](C)[C@@H]1NC(=O)[C@@H]2CSSC[C@@H]3NC(=O)[C@H](C(C)C)NC(=O)[C@H](CC(C)C)NC(=O)[C@H](CC(N)=O)NC(=O)[C@@H]4CCCN4C(=O)[C@H](CCCNC(=N)N)NC(=O)[C@H](CSSC[C@H](NC(=O)[C@@H](N)CC(=O)O)C(=O)N[C@@H](CC(C)C)C(=O)NCC(=O)N[C@@H](Cc4ccccc4)C(=O)N[C@@H](CCSC)C(=O)N[C@@H](CCCNC(=N)N)C(=O)N[C@@H](CCCCN)C(=O)N2)NC(=O)[C@H](CSSC[C@@H](C(=O)N[C@@H](CCCCN)C(=O)N[C@@H](Cc2ccc(O)cc2)C(=O)N[C@H](C(=O)N[C@H](Cc2ccccc2)C(N)=O)C(C)C)NC(=O)[C@H](Cc2c[nH]c4ccccc24)NC(=O)[C@H](CCCCN)NC(=O)[C@H](Cc2c[nH]cn2)NC(=O)[C@H]([C@@H](C)O)NC(=O)[C@H](CCCNC(=N)N)NC(=O)[C@H](CO)NC3=O)NC(=O)[C@H](CCCCN)NC(=O)[C@H](CC(=O)O)NC(=O)[C@H](CC(N)=O)NC(=O)[C@H](CC(=O)O)NC(=O)[C@@H]2CCCN2C1=O [compound 404] |  |  |  | IC50 [1]: 20.7 µM
2 | CC[C@H](C)[C@@H]1NC(=O)[C@@H]2CSSC[C@@H]3NC(=O)[C@H](C(C)C)NC(=O)[C@H](CC(C)C)NC(=O)[C@H](CC(N)=O)NC(=O)[C@@H]4CCCN4C(=O)[C@H](CCCNC(=N)N)NC(=O)[C@H](CSSC[C@H](NC(=O)[C@@H](N)CC(=O)O)C(=O)N[C@@H](CC(C)C)C(=O)NCC(=O)N[C@@H](Cc4ccc(F)cc4)C(=O)N[C@@H](CCSC)C(=O)N[C@@H](CCCNC(=N)N)C(=O)N[C@@H](CCCCN)C(=O)N2)NC(=O)[C@H](CSSC[C@@H](C(=O)N[C@@H](CCCCN)C(=O)N[C@@H](Cc2ccc(O)cc2)C(=O)N[C@H](C(=O)N[C@@H](Cc2ccccc2)C(N)=O)C(C)C)NC(=O)[C@H](Cc2c[nH]c4ccccc24)NC(=O)[C@H](CCCCN)NC(=O)[C@H](Cc2c[nH]cn2)NC(=O)[C@H]([C@@H](C)O)NC(=O)[C@H](CCCNC(=N)N)NC(=O)[C@H](CO)NC3=O)NC(=O)[C@H](CCCCN)NC(=O)[C@H](CC(=O)O)NC(=O)[C@H](CC(N)=O)NC(=O)[C@H](CC(=O)O)NC(=O)[C@@H]2CCCN2C1=O [compound 655] | 26.6 | 3.8 | 7.1 | 
3 | CC[C@H](C)[C@@H]1NC(=O)[C@@H]2CSSC[C@@H]3NC(=O)[C@H](C(C)C)NC(=O)[C@H](CC(C)C)NC(=O)[C@H](CC(N)=O)NC(=O)[C@@H]4CCCN4C(=O)[C@H](CCCNC(=N)N)NC(=O)[C@H](CSSC[C@H](NC(=O)[C@@H](N)CC(=O)O)C(=O)N[C@@H](CC(C)C)C(=O)NCC(=O)N[C@@H](Cc4ccc(Cl)c(Cl)c4)C(=O)N[C@@H](CCSC)C(=O)N[C@@H](CCCNC(=N)N)C(=O)N[C@@H](CCCCN)C(=O)N2)NC(=O)[C@H](CSSC[C@@H](C(=O)N[C@@H](CCCCN)C(=O)N[C@@H](Cc2ccc(O)cc2)C(=O)N[C@H](C(=O)N[C@@H](Cc2ccccc2)C(N)=O)C(C)C)NC(=O)[C@H](Cc2c[nH]c4ccccc24)NC(=O)[C@H](CCCCN)NC(=O)[C@H](Cc2c[nH]cn2)NC(=O)[C@H]([C@@H](C)O)NC(=O)[C@H](CCCNC(=N)N)NC(=O)[C@H](CO)NC3=O)NC(=O)[C@H](CCCCN)NC(=O)[C@H](CC(=O)O)NC(=O)[C@H](CC(N)=O)NC(=O)[C@H](CC(=O)O)NC(=O)[C@@H]2CCCN2C1=O [compound 653] | 17.7 | 2.0 | 8.8 | 
4 | CC[C@H](C)[C@@H]1NC(=O)[C@@H]2CSSC[C@@H]3NC(=O)[C@H](C(C)C)NC(=O)[C@H](CC(C)C)NC(=O)[C@H](CC(N)=O)NC(=O)[C@@H]4CCCN4C(=O)[C@H](CCCNC(=N)N)NC(=O)[C@H](CSSC[C@H](NC(=O)[C@@H](N)CC(=O)O)C(=O)N[C@@H](CC(C)C)C(=O)NCC(=O)N[C@@H](Cc4ccccc4)C(=O)N[C@@H](CCSC)C(=O)N[C@@H](CCCNC(=N)N)C(=O)N[C@@H](CCCCN)C(=O)N2)NC(=O)[C@H](CSSC[C@@H](C(=O)N[C@@H](CCCCN)C(=O)N[C@@H](Cc2ccc(O)cc2)C(=O)N[C@H](C(=O)N[C@@H](Cc2ccccc2)C(N)=O)C(C)C)NC(=O)[C@H](Cc2c[nH]c4ccccc24)NC(=O)[C@H](CCC(N)=O)NC(=O)[C@H](Cc2cnc[nH]2)NC(=O)[C@H]([C@@H](C)O)NC(=O)[C@H](CCCNC(=N)N)NC(=O)[C@H](CO)NC3=O)NC(=O)[C@H](CCCCN)NC(=O)[C@H](CC(=O)O)NC(=O)[C@H](CC(N)=O)NC(=O)[C@H](CC(=O)O)NC(=O)[C@@H]2CCCN2C1=O [SEQ ID NO: 763, [Gln28]GpTx-1] (H-DCLGFMRKCIPDNDKCCRPNLVCSRTHQWCKYVF-NH2; disulfide 2-17, 9-23, 16-30) |  |  |  | IC50 ([2]; IonWorks Quattro, use-dependent block, hNav1.3, read-out: IWQ Use Nav1.3): 270 nM; IC50 [3]: 190 nM
5 | CC[C@H](C)[C@@H]1NC(=O)[C@@H]2CSSC[C@@H]3NC(=O)[C@H](C(C)C)NC(=O)[C@H](CC(C)C)NC(=O)[C@H](CC(N)=O)NC(=O)[C@@H]4CCCN4C(=O)[C@H](CCCNC(=N)N)NC(=O)[C@H](CSSC[C@H](NC(=O)[C@@H](N)CC(=O)O)C(=O)N[C@@H](CC(C)C)C(=O)NCC(=O)N[C@@H](Cc4ccccc4)C(=O)N[C@@H](CCSC)C(=O)N[C@@H](CCCNC(=N)N)C(=O)N[C@@H](CCCCN)C(=O)N2)NC(=O)[C@H](CSSC[C@@H](C(=O)N[C@@H](CCCCN)C(=O)N[C@@H](Cc2ccc(O)cc2)C(=O)N[C@H](C(=O)N[C@@H](Cc2ccccc2)C(N)=O)C(C)C)NC(=O)[C@H](CCCCN)NC(=O)[C@H](CCCCN)NC(=O)[C@H](Cc2c[nH]cn2)NC(=O)[C@H]([C@@H](C)O)NC(=O)[C@H](CCCNC(=N)N)NC(=O)[C@H](CO)NC3=O)NC(=O)[C@H](CCCCN)NC(=O)[C@H](CC(=O)O)NC(=O)[C@H](CC(N)=O)NC(=O)[C@H](CC(=O)O)NC(=O)[C@@H]2CCCN2C1=O [compound 56] (H-DCLGFMRKCIPDNDKCCRPNLVCSRTHKKCKYVF-NH2; disulfide 2-17, 9-23, 16-30) |  |  |  | Nav1.4/Nav1.3 [2]: 1.1; Nav1.4/Nav1.7 [3]: 1.4; Nav1.7/Nav1.3 [3]: 0.8
6 | CC[C@H](C)[C@@H]1NC(=O)[C@@H]2CSSC[C@@H]3NC(=O)[C@H](C(C)C)NC(=O)[C@H](CC(C)C)NC(=O)[C@H](CC(N)=O)NC(=O)[C@@H]4CCCN4C(=O)[C@H](CCCNC(=N)N)NC(=O)[C@H](CSSC[C@H](NC(=O)[C@@H](N)CC(=O)O)C(=O)N[C@@H](CC(C)C)C(=O)NCC(=O)N[C@@H](Cc4ccc(C(F)(F)F)cc4)C(=O)N[C@@H](CCSC)C(=O)N[C@@H](CCCNC(=N)N)C(=O)N[C@@H](CCCCN)C(=O)N2)NC(=O)[C@H](CSSC[C@@H](C(=O)N[C@@H](CCCCN)C(=O)N[C@@H](Cc2ccc(O)cc2)C(=O)N[C@H](C(=O)N[C@@H](Cc2ccccc2)C(N)=O)C(C)C)NC(=O)[C@H](Cc2c[nH]c4ccccc24)NC(=O)[C@H](CCCCN)NC(=O)[C@H](Cc2c[nH]cn2)NC(=O)[C@H]([C@@H](C)O)NC(=O)[C@H](CCCNC(=N)N)NC(=O)[C@H](CO)NC3=O)NC(=O)[C@H](CCCCN)NC(=O)[C@H](CC(=O)O)NC(=O)[C@H](CC(N)=O)NC(=O)[C@H](CC(=O)O)NC(=O)[C@@H]2CCCN2C1=O [compound 654] | 18.4 | 4.4 | 4.1 | 

From patent publication US9340590B2 (priority 2011, dated 2016)
